Data published in patent US20110008465A1, “SESQUITERPENE FORMULATIONS, KITS AND METHODS OF USE THEREOF” (priority 2007, published 2011).

Assays:
[1] = test system: Panc 05.04 (pancreas cancer); assay: Chou and Talalay combination assay with beta-caryophyllene; format: cell-based, Human; details: in combination with beta-caryophyllene in ethanol (40-150 mM), 48 h
Description: Agent: […] Each solution was prepared fresh and use within 1 hour after preparation. 5 μL of each test article were added to 1 mL of culture medium for a final concentration of 0.5% of solvent and this concentration have no toxic effect on cells. Cells: The Panc 05.04 cell line was used. Cells were harvested using trypsine-EDTA. […] Cells were plated in 96-well microplates (BD Falcon) at a density of 7.5×10^3 cells per well for Chou and Talalay assay in 100 μL of culture medium and were allowed to adhere for 24 hours before treatment. Proliferation assay: Increasing concentrations of the anticancer agents and/or beta-caryophyllene were added to 96-well plate (100 μL per well). The final concentration of solvent in the culture medium was maintained below 0.5% (volume/volume) to avoid solvent toxicity. […] The cells were incubated for 48 h at 37° C. and 5% CO2. Cytotoxicity was assessed using the resazurin reduction test (8). […] Resazurin was then removed. Data analysis: Results were analyzed using the Chou and Talalay method (9) and may be interpreted as follow: […]

tumor cell lines = assay: Comparative potentiating effect of beta-caryophyllene and Tesmilifene (DPPE) combined with 5 antitumor classes; format: cell-based
Description: Each solution was prepared fresh and use within 1 hour after preparation.
Cells were then harvested using trypsine-EDTA. Cells were counted using a hemocytometer and resuspended in DMEM+10% FBS medium.
Proliferation assay: Increasing concentrations of the anticancer agents and/or beta-caryophyllene were added to 96-well plate (100 μL per well). The final concentration of solvent in the culture medium was maintained below 0.5% (volume/volume) to avoid solvent toxicity.
The cells were incubated for 48 h at 37° C. and 5% CO2. Cytotoxicity was assessed using the resazurin reduction test (O'Brien et al., 2000). Fluorescence was measured on an automated 96-well Fluoroskan Ascent FI™ plate reader (Labsystems) using excitation and emission wavelengths of 530 nm and 590 nm, respectively. Resazurin was then removed.
Microplates were frozen at −20° C. overnight. Plates were thawed, a volume of 100 μl of 0.01% SDS in water was added to the wells, the plates were shaken at room temperature for 3 hours and then frozen once more at −20° C. overnight. […] Plates were shaken in the dark (at room temperature) for at least 2 hours, and fluorescence was measured on an automated 96-well Fluoroskan Ascent FI™ plate reader (Labsystems) using excitation and emission wavelengths of 360 nm and 460 nm, respectively.
Results were analyzed using the Chou and Talalay method (9) and may be interpreted as follow: Cl>1 represents an antagonist effect of beta-caryophyllene with the corresponding anticancer agent; Cl=1 represents an additive effect of beta-caryophyllene with the corresponding anticancer agent; Cl<1 represents a potentiating effect of beta-caryophyllene with the corresponding anticancer agent.

MCF-7 = assay: Cytotoxicity of alpha-humulene and isocaryophyllene alone or combined with beta-caryophyllene; format: cell-based, human; details: beta-caryophyllene 2.5 to 40 μg/ml
Description: Combinations of beta-caryophyllene and two other antitumor agents, isocaryophyllene and α-humulene, were also tested as described above with some adaptations. 5×10^3 cells per well were allowed to adhere for 16 hours before treatment. The final concentration of solvent in the culture medium was maintained at 0.5% (volume/volume) to avoid toxicity. These combinations were tested on MCF-7.

[2] = test system: B16-F1 mouse skin melanoma
Description: Formulations: Two formulations were used for this study. The first one was prepared for groups treated with paclitaxel alone while the other one was prepared for the paclitaxel/caryophyllene combination (Table 5). […] These solutions were further diluted with 19 mL of a solution containing soya lecithin (2.85 mL), glycerol (0.95 mL) and polysorbate 80 (380 μL) in water (14.82 mL). Each solution was prepared fresh and used within 30 minutes after preparation (see Table 5 below for presenting formulations).
Mice: All the experiments were carried out using B6D2F1 male mice, 6-weeks old (Charles Rivers Inc., St-Constant, QC). They were handled and cared for in accordance with the Guide for the Care and Use of Laboratory Animals.
Cells (passages #7 to 21) were grown to 90% confluence in complete MEM medium containing Earle's salts and L-glutamine (Mediatech Cellgro, Va.), 10% fetal bovine serum (Hyclone), vitamins (1×), penicillin (100 I.U./mL) and streptomycin (100 μg/mL), essential amino acids (1×) and sodium pyruvate (1×) (Mediatech Cellgro, Va.). Cells were then harvested using 0.5% trypsin-EDTA (Mediatech Cellgro, Va.). Cells were counted using a hemacytometer and resuspended in MEM medium without SVF. 100 μL of a solution containing […] per well were inoculated subcutaneously in each mice.
Administration: To establish animal tumor models, 2.5×10^6 cells were resuspended in 100 μL of MEM medium without SVF (Mediatech Cellgro, Va.) and injected into the subcutaneous tissue of the right flank of the mice on day zero. […] Treatments by intravenous injections (tail vein) were performed on days 7, 10, 13.
Data analysis: Antitumor activity was evaluated according to two parameters as follows:
CTW values were averaged within each group during and after drug treatment over a period of 17 days post-tumor implant. […] Values of p<0.05 were considered statistically significant.

[3] = paclitaxel 2 mg/kg, beta-caryophyllene 1%, i.v. days 7, 10, 13

For `CC[C@@]1(O)C(=O)OCc2c1cc1n(c2=O)Cc2cc3ccccc3nc2-1` [Camptothecin, camptothecin], the “Potentiating activity Panc 05.04” value [1] was “Potentiating > IC60”.

`CCc1c2c(nc3ccc(OC(=O)N4CCC(N5CCCCC5)CC4)cc13)-c1cc3c(c(=O)n1C2)COC(=O)[C@]3(O)CC` [Irinotecan] was tested, and the “Potentiating activity Panc 05.04” value [1] was “Potentiating > IC50”.

For `C=C1CC/C=C(\C)CC[C@@H]2[C@@H]1CC2(C)C` [beta-caryophyllene, (1R,4E,9S)-4-11,11-trimethyl-8-methylenebicyclo[7.2.0]undec-4-ene], the Alkylating agents % (tumor cell lines; class (1) Very High) was 50%, the “Alkylating agents Total (60)” value (tumor cell lines; class (1) Very High) was 30 and the Antimitotic agents % (tumor cell lines; class (1) Very High) was 60%. The “Antimitotic agents Total (40)” value (tumor cell lines; class (1) Very High) was 24, the RNA/DNA antimetabolites % (tumor cell lines; class (1) Very High) was 30% and the “RNA/DNA antimetabolites Total (20)” value (tumor cell lines; class (1) Very High) was 6. The “Topoisomerase II inhibitors %” value (tumor cell lines; class (1) Very High) was 33%, the “Topoisomerase II inhibitors Total (40)” value (tumor cell lines; class (1) Very High) was 13 and the kinase inhibitors % (tumor cell lines; class (1) Very High) was 35%. The “kinase inhibitors Total (20)” value (tumor cell lines; class (1) Very High) was 7, the Alkylating agents % (tumor cell lines; class (2) High) was 15% and the “Alkylating agents Total (60)” value (tumor cell lines; class (2) High) was 9. The Antimitotic agents % (tumor cell lines; class (2) High) was 15%, the “Antimitotic agents Total (40)” value (tumor cell lines; class (2) High) was 6 and the RNA/DNA antimetabolites % (tumor cell lines; class (2) High) was 20%. The “RNA/DNA antimetabolites Total (20)” value (tumor cell lines; class (2) High) was 4, the “Topoisomerase II inhibitors %” value (tumor cell lines; class (2) High) was 18% and the “Topoisomerase II inhibitors Total (40)” value (tumor cell lines; class (2) High) was 7. For the same compound, the kinase inhibitors % (tumor cell lines; class (2) High) was 30%, the “kinase inhibitors Total (20)” value (tumor cell lines; class (2) High) was 6 and the Alkylating agents % (tumor cell lines; class (3) Moderate) was 23%. For the same compound, the “Alkylating agents Total (60)” value (tumor cell lines; class (3) Moderate) was 14, the Antimitotic agents % (tumor cell lines; class (3) Moderate) was 23% and the “Antimitotic agents Total (40)” value (tumor cell lines; class (3) Moderate) was 9. The RNA/DNA antimetabolites % (tumor cell lines; class (3) Moderate) was 15%, the “RNA/DNA antimetabolites Total (20)” value (tumor cell lines; class (3) Moderate) was 3 and the “Topoisomerase II inhibitors %” value (tumor cell lines; class (3) Moderate) was 28%. The “Topoisomerase II inhibitors Total (40)” value (tumor cell lines; class (3) Moderate) was 11, the kinase inhibitors % (tumor cell lines; class (3) Moderate) was 20% and the “kinase inhibitors Total (20)” value (tumor cell lines; class (3) Moderate) was 4. For the same compound, the Alkylating agents % (tumor cell lines; class (4) Weak) was 4%, the “Alkylating agents Total (60)” value (tumor cell lines; class (4) Weak) was 2 and the Antimitotic agents % (tumor cell lines; class (4) Weak) was 3%. For the same compound, the “Antimitotic agents Total (40)” value (tumor cell lines; class (4) Weak) was 1, the RNA/DNA antimetabolites % (tumor cell lines; class (4) Weak) was 10% and the “RNA/DNA antimetabolites Total (20)” value (tumor cell lines; class (4) Weak) was 2. The “Topoisomerase II inhibitors %” value (tumor cell lines; class (4) Weak) was 10%, the “Topoisomerase II inhibitors Total (40)” value (tumor cell lines; class (4) Weak) was 4 and the kinase inhibitors % (tumor cell lines; class (4) Weak) was 5%. The “kinase inhibitors Total (20)” value (tumor cell lines; class (4) Weak) was 1, the Alkylating agents % (tumor cell lines; class (5) Additive effect) was 0% and the “Alkylating agents Total (60)” value (tumor cell lines; class (5) Additive effect) was 0. For the same compound, the Antimitotic agents % (tumor cell lines; class (5) Additive effect) was 0%, the “Antimitotic agents Total (40)” value (tumor cell lines; class (5) Additive effect) was 0 and the RNA/DNA antimetabolites % (tumor cell lines; class (5) Additive effect) was 0%. The “RNA/DNA antimetabolites Total (20)” value (tumor cell lines; class (5) Additive effect) was 0, the “Topoisomerase II inhibitors %” value (tumor cell lines; class (5) Additive effect) was 8% and the “Topoisomerase II inhibitors Total (40)” value (tumor cell lines; class (5) Additive effect) was 3. The kinase inhibitors % (tumor cell lines; class (5) Additive effect) was 5%, the “kinase inhibitors Total (20)” value (tumor cell lines; class (5) Additive effect) was 1 and the Alkylating agents % (tumor cell lines; class (6) Antagonist effect) was 7%. For the same compound, the “Alkylating agents Total (60)” value (tumor cell lines; class (6) Antagonist effect) was 4, the Antimitotic agents % (tumor cell lines; class (6) Antagonist effect) was 0% and the “Antimitotic agents Total (40)” value (tumor cell lines; class (6) Antagonist effect) was 0. For the same compound, the RNA/DNA antimetabolites % (tumor cell lines; class (6) Antagonist effect) was 25%, the “RNA/DNA antimetabolites Total (20)” value (tumor cell lines; class (6) Antagonist effect) was 5 and the “Topoisomerase II inhibitors %” value (tumor cell lines; class (6) Antagonist effect) was 5%. The “Topoisomerase II inhibitors Total (40)” value (tumor cell lines; class (6) Antagonist effect) was 2, the kinase inhibitors % (tumor cell lines; class (6) Antagonist effect) was 5% and the “kinase inhibitors Total (20)” value (tumor cell lines; class (6) Antagonist effect) was 1. For the same compound, the “drugs exhibiting a potentiating effect when combined” value (tumor cell lines; drugs tested at their IC50 values) was 91%, the “effect on anticancer activity of alpha-humulene and isocaryophyllene” value (MCF-7) was “increases significantly anticancer activity” and the “effect on tumor growth (in words)” value ([2]; B16 melanoma-bearing mice, i.v. days 7, 10, 13) was “do not significantly inhibit tumor growth”. For the same compound, the “Observations: animals surviving on day 17” value ([2]; male, B6D2F1, mouse, in vivo, 17 day) was 08/08 animals, the “Treated/Control (%) on day 13” value [2, 3] was 95% and the “Treated/Control (%) on day 14” value [2, 3] was 100%. For the same compound, the “Treated/Control (%) on day 15” value [2, 3] was 89%, the “Treated/Control (%) on day 16” value [2, 3] was 91% and the “Treated/Control (%) on day 17” value [2, 3] was 111%.
